In PMC6344527, “Toxicity and possible mechanisms of action of honokiol from Magnolia denudata seeds against four mosquito species” (Scientific Reports, 2019):
Values after ≈ are worked out from the molar mass of the structure shown.

Legend:
[1] = system: third-instar larvae of insecticide-resistant Anopheles sinensis; assay: contact mortality bioassay, 24 h exposure; type: in vivo; conditions: Table 5, larvae resistant to deltamethrin and temephos, 24 h exposure
[2] = system: third-instar larvae of insecticide-susceptible Aedes albopictus; assay: contact mortality bioassay, 24 h exposure; type: in vivo
[3] = system: larvae of four mosquito species (Cx. pipiens pallens, Ae. aegypti, Ae. albopictus, and An. sinensis); assay: contact mortality bioassay, range over four mosquito species; type: in vivo; conditions: 24 h
Description: A contact mortality bioassay[25] was used to evaluate the toxicity of all compounds against third-instar larvae of the four mosquito species. Each test compound in methanol was suspended in DW with Triton X-100 (20 µL/L). Groups of 20 mosquito larvae were separately placed into paper cups (270 mL) containing each compound solution (250 mL). […] Negative controls consisted of a methanol–Triton X-100 solution in DW.
Treated and control (methanol–Triton X-100 solution only) larvae were maintained under the same conditions as those used for colony maintenance without providing food. Larval mortalities were determined 24 h post-treatment. […] All treatments were performed three times using 20 larvae per replicate.
The concentration of the test compounds required to produce 50% AChE inhibitory activity (IC50) was determined using the SAS 9.13 program (Cary: SAS Institute; 2014). Concentration-mortality data were subjected to probit analysis using the SAS 9.13 program. […] Statistical analyses were performed using the SAS 9.13 program. Multiple linear regression and correlation analysis were performed using the SPSS 24 program (Armonk: IBM Corp.; 2016).

[4] = system: whole-body homogenate from third-instar Aedes aegypti larvae (adenylate cyclase activity); assay: determination of cyclic AMP levels (octopamine-sensitive adenylate cyclase activity); type: biochemical; conditions: 100 μM; compared with control group / octopamine
Description: The method of Perumalsamy et al.[42] was used to assess the in vitro octopamine-sensitive adenylate cyclase activity of the test compounds. In brief, whole bodies of 75 Ae. aegypti larvae (106.2 mg) were homogenized in 500 µL of 2 mM Tris-maleate buffer (pH 7.4) containing 0.8 mM ethylene glycol tetraacetic acid (EGTA). The adenylate cyclase activity was determined using the cAMP Biotrak Enzymeimmunoassay system according to the manufacturer’s protocol. The assay was conducted in a total volume of 100 µL containing 80 mM Tris-maleate buffer, 5 mM theophylline, 2 mM MgSO4, 0.5 mM adenosine triphosphate (ATP), 0.2 mM EGTA, 50 µL of whole-body homogenate (equivalent to 4.12 µg protein), and 1 µL of the test compounds in Tris-maleate buffer containing 0.2% ethanol. After incubation at 20 °C for 5 min, the reaction was initiated by addition of ATP. Incubation was performed at 30 °C for 3 min in a shaking water bath. The reaction was stopped by boiling for 2 min, and then, the assay tube was cooled and centrifuged at 8,000 × g for 10 min. Fifty microliters of the supernatant were assayed for cAMP levels.
Polystyrene microplates (1 strip of 8 wells) coated with a goat anti-mouse polyclonal antibody were used. Fifty microliters of a mouse monoclonal antibody solution were added to each well except for the blank wells (or the nonspecific binding wells). The wells covered with the adhesive strip were incubated at 25 °C for 1 h in a shaking incubator (480 rpm). After washing with 400 µL of wash buffer four times, 50 μL of the two neolignan samples for cAMP determination and cAMP standard were added to wells. Control, blank (nonspecific binding), and zero standard wells were supplemented with 50 μL of a diluent RD5-55 buffer. […] The optical densities at 450 and 540 nm were determined using the microplate reader described above. The readings at 540 nm were subtracted from the readings at 450 nm. The cAMP concentrations are expressed as nmol/µg protein. The results are expressed as the means ± SEs of triplicate samples from three independent experiments.

[5] = system: third-instar Ae. aegypti larvae; assay: light microscopy analysis of treated larvae; type: in vivo, Aedes aegypti; conditions: honokiol 6.5 mg/L or magnolol 25 mg/L (LC50), 24 h
Description: At 24 h post-treatment, the untreated and treated larvae were placed on a microscope slide at room temperature for light microscopy. Morphological observations were made with an EZ4 HD stereo microscope (35×) equipped with an Integrated 3.0 Mega-Pixel CMOS camera (Leica Microsystems, Heerbrugg, Switzerland). All experiments were performed in duplicate, with 20 mosquito larvae used in each replicate. More than 10 live larvae from the control and treated groups were randomly collected and used for analysis.

[6] = system: midgut and anal gills of third-instar Ae. aegypti larvae; assay: transmission electron microscopy analysis of midgut and anal gills; type: in vivo, Aedes aegypti; conditions: honokiol 6.5 mg/L or magnolol 25 mg/L (LC50), 24 h
Description: At 24 h post-treatment, the midgut and anal gills of the untreated and treated Ae. aegypti larvae were fixed in Karnovsky’s fixative (2% (v/v) glutaraldehyde and 2% (v/v) paraformaldehyde in 0.05 M sodium cacodylate buffer (pH 7.2)) at 4 °C in darkness for 2–4 h and were washed three times with the same buffer. The specimens were post-fixed with 1% (w/v) osmium tetroxide in the same buffer at 4 °C for 2 h and washed with DW three times. The post-fixed specimens were then dehydrated through a graded series of ethanol with increasing concentrations up to 100% for 15 min. The specimens were further treated with propylene oxide twice each for 15 min as a transitional fluid and embedded in Spurr’s resin[77]. Ultrathin sections (approximately 50 nm thickness) were cut with a UC6 ultramicrotome (Leica Microsystems, Wetzlar, Germany) and stained in 2% aqueous uranyl acetate for 7 min at room temperature as well as with Reynolds lead citrate[78] for 7 min. The sections were mounted on copper grids, and micrographs were obtained from a CM120 transmission electron microscope (Philips Electronics, Amsterdam, Netherlands) at 80 kV. Images were captured using a MegaView III digital camera (Olympus-SIS, Lakewood, CO, USA). Observations were taken of 12 larvae via TEM.

[7] = parameters: method as in PMID 20877235; conditions: cited from earlier work

| SMILES | LC50 ([1]; Anopheles sinensis, read-out: LC50 (mg/L) (95% CI)) | LC90 (mg/L) (95% CI) [1] | Slope ± SE ([1]; probit slope) | LC50 ([2]; Aedes albopictus, Table 4, 24 h exposure, read-out: LC50 (mg/L) (95% CI)) | LC90 (mg/L) (95% CI) ([2]; Table 4, 24 h exposure) | times less toxic than temephos ([2]; from 24 h LC50 values) [times] | Slope ± SE ([2]; probit slope, Table 4, 24 h exposure) | LC50 [3] [µg/mL] | cAMP levels [4] | anal gill region (light microscopy) [5] | morphology of the whole body (light microscopy) [5] | histopathological effects on anal gills (TEM) [6] | histopathological effects on midgut (TEM) [6] | toxicity in animal models [7] |
| --- | --- | --- | --- | --- | --- | --- | --- | --- | --- | --- | --- | --- | --- | --- |
| C=CCc1ccc(O)c(-c2ccc(O)c(CC=C)c2)c1 [Honokiol, 2-(4-hydroxy-3-prop-2-enyl-phenyl)-4-prop-2-enyl-phenol] | 7.37 (≈ 27.7 µM) | 31.45 (22.90–56.82) mg/L | 2.0 ± 0.35 | 6.13 (≈ 23 µM) | 16.52 (13.74–21.90) mg/L | 464 | 2.9 ± 0.52 | 6.13 to 7.37 (≈ 23 to 27.7 µM) | significantly higher than that induced by the control group | the anal gill from one side was swollen and reduced from its normal length, and the other one was completely damaged | severely damaged, with an indistinct appearance of the thorax, midgut, and abdominal regions | cytoplasmic disruption with damaged anal gill cells | devastated cellular material and extruded masses in the cytoplasm | no toxicity or serious adverse effects |
| C=CCc1ccc(O)c(-c2cc(CC=C)ccc2O)c1 [Magnolol, magnolol] |  |  |  |  |  |  |  |  | significantly higher than that induced by the control group | completely damaged outer cuticle membranes with undistinguishable anal gills with no internal body fluid | shrunken body with no distinct abdominal segments | damaged outer membranes of thick cuticles, which led to internal cytoplasmic destruction | complete disappearance of nuclei as well as cytoplasmic contents |  |
